melting point: 227 to 228 °C
SMILES: CCC(CC)c1c(O)nn2c(-c3ccc(Cl)cc3Cl)c(C)cnc12 [Example 92, 7-(2,4-dichlorophenyl)-2-hydroxy-6-methyl-3-(3-pentyl)pyrazolo[1,5-a]pyrimidine]

From patent US6958341B2, “Pyrazolopyrimidines as CRF antagonists” (Bristol-Myers Squibb Pharma Company, priority 1999, dated 2005)
